The text below walks through data of US11191762B2, “Alkyl substituted triazole compounds as agonists of the APJ Receptor” (priority 2016, dated 2021).

In one assay the target is human APJ receptor (Homo sapiens (Human), UniProt P35414). Briefly: biochemical. Type of assay: biochemical.
human APJ receptor, sequence (P35414 whole entry): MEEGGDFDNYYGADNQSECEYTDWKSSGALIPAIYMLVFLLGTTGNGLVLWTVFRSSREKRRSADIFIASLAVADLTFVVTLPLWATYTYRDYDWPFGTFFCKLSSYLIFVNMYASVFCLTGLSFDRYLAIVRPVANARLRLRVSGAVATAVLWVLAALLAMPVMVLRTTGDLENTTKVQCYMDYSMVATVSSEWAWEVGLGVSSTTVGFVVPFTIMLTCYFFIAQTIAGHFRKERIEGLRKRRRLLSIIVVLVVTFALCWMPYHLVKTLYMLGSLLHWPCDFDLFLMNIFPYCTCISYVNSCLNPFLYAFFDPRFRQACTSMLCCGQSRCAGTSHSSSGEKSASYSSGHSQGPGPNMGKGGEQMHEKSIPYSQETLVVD
Settings: not given
The essentials: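 [35S]GTPγS binding to membranes from CHO cells stably expressing human APJ, captured on WGA PS beads (5 μg/well). Buffer: 20 mM HEPES pH 7.5, 5 mM MgCl2, 100 mM NaCl, 0.1% BSA, with 3 μM GDP and 0.1 nM [35S]GTPγS final; compounds tested as 22-point 2-fold dilutions.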
`[2H]C([2H])([2H])OCc1nnc(NS(=O)(=O)[C@@H](C)[C@@H](OC(C)C)c2ncc(C)cn2)n1-c1c(OC)cccc1OC` [Example 152.0] had a half-maximal effective concentration (EC50) of 6.1 nM.

Still in this assay, the particulars now being: [35S]GTPγS binding, membranes from CHO cells stably expressing human APJ receptor; read-out: Activity hAPJ SPA EC50 IP.
Regarding `COc1ncnc(OC)c1-n1c(NS(=O)(=O)[C@@H](C)[C@H](C)c2ncc(Cl)cn2)nnc1[C@@H](C)OC(C)C` (single isomer, unassigned) [Example 2.0, (2S,3R)-3-(5-chloro-2-pyrimidinyl)-N-(4-(4,6-dimethoxy-5-pyrimidinyl)-5-((1R)-1-(1-methylethoxy)ethyl)-4H-1,2,4-triazol-3-yl)-2-butanesulfonamide or (2S,3R)-3-(5-chloro-2-pyrimidinyl)-N-(4-(4,6-dimethoxy-5-pyrimidinyl)-5-((1S)-1-(1-methylethoxy)ethyl)-4H-1,2,4-triazol-3-yl)-2-butanesulfonamide], the 50% effective concentration (EC50) came to 170 nM. Still for that read-out and setting: the value for `COCc1nnc(NS(=O)(=O)[C@@H](C)[C@H](C)c2cnc(C)cn2)n1-c1c(OC)cccc1OC` [Example 8.0, (2S,3R)-N-(4-(2,6-dimethoxyphenyl)-5-(methoxymethyl)-4H-1,2,4-triazol-3-yl)-3-(5-methyl-2-pyrazinyl)-2-butanesulfonamide] was 260 nM; that for `COc1cccc(OC)c1-n1c(CC(C)(C)OC)nnc1NS(=O)(=O)[C@@H](C)[C@H](C)c1ncc(Cl)cn1` [Example 40.0, (2S,3R)-3-(5-chloro-2-pyrimidinyl)-N-(4-(2,6-dimethoxyphenyl)-5-(2-methoxy-2-methylpropyl)-4H-1,2,4-triazol-3-yl)-2-butanesulfonamide] was 110 nM; that for `COc1cccc(OC)c1-n1c(Cc2nc(C)cs2)nnc1NS(=O)(=O)[C@@H](C)[C@H](C)c1ncc(Cl)cn1` [Example 44.0, (2S,3R)-3-(5-chloro-2-pyrimidinyl)-N-(4-(2,6-dimethoxyphenyl)-5-((4-methyl-1,3-thiazol-2-yl)methyl)-4H-1,2,4-triazol-3-yl)-2-butanesulfonamide] was 36 nM. Consider `COc1cccc(OC)c1-n1c(COc2ccccc2)nnc1NS(=O)(=O)[C@@H](C)[C@H](OC)c1ncc(C)cn1` [Example 48.0, (1R,2S)—N-(4-(2,6-Dimethoxyphenyl)-5-(phenoxymethyl)-4H-1,2,4-triazol-3-yl)-1-methoxy-1-(5-methyl-2-pyrimidinyl)-2-propanesulfonamide], for which the concentration giving a half-maximal response (EC50) came out at 440 nM. On to `CO[C@H](c1ncc(Cl)cn1)[C@H](C)S(=O)(=O)Nc1nnc(CC(F)(F)F)n1C1CCOCC1` [Example 139.0], for which the EC50 is > 4200 nM.

`COc1ccc(Cc2nnc(NS(=O)(=O)[C@@H](C)[C@H](OC)c3ncc(C)cn3)n2-c2c(OC)cccc2OC)cc1` [Example 49.0]: the concentration for a half-maximal effect (EC50) came out at 170 nM. Consider `COCc1nnc(NS(=O)(=O)[C@@H](C)[C@@H](OC(C)C)c2ncc(C)cn2)n1-c1cc(OC)ccc1Cl` [Example 163.0], for which the EC50 was 40 nM. Same read-out and setting: with `COc1ncnc(OC)c1-n1c(NS(=O)(=O)[C@@H](C)[C@H](C)c2ncc(Cl)cn2)nnc1[C@@H](C)OC(C)C` (single isomer, unassigned) [Example 3.0, (2S,3R)-3-(5-chloro-2-pyrimidinyl)-N-(4-(4,6-dimethoxy-5-pyrimidinyl)-5-((1R)-1-(1-methylethoxy)ethyl)-4H-1,2,4-triazol-3-yl)-2-butanesulfonamide or (2S,3R)-3-(5-chloro-2-pyrimidinyl)-N-(4-(4,6-dimethoxy-5-pyrimidinyl)-5-((1S)-1-(1-methylethoxy)ethyl)-4H-1,2,4-triazol-3-yl)-2-butane sulfonamide] the figure was 320 nM; with `COc1ncnc(OC)c1-n1c(CC(F)(F)F)nnc1NS(=O)(=O)[C@@H](C)[C@H](OC)c1ncc(Cl)cn1` [Example 67.0, (1R,2S)-1-(5-chloropyrimidin-2-yl)-N-(4-(4,6-dimethoxypyrimidine-5-yl)-5-(2.2.2-trifluoroethyl)-4H-1.2.4-triazol-3-yl)-1-methoxypropane-2-sulfonamide], 230 nM; with `COCc1nnc(NS(=O)(=O)[C@@H](C)[C@H](OC)c2ncc(Cl)cn2)n1C1CCOCC1` [Example 63.0, (1R, 2S)-1-(5-chloropyrimidin-2-yl)-1-methoxy-N-(5-(methoxymethyl)-4-(tetrahydro-2H-pyran-4-yl)-4H-1,2,4-triazol-3-yl)propane-2-sulfonamide], 10 nM. Same read-out and setting: the value for `COc1ncnc(OC)c1-n1c(Cc2ccccc2)nnc1NS(=O)(=O)[C@@H](C)[C@H](OC)c1ncc(Cl)cn1` [Example 22.0, (1R,2S)-N-(5-benzyl-4-(4,6-dimethoxy-5-pyrimidinyl)-4H-1,2,4-triazol-3-yl)-1-(5-chloro-2-pyrimidinyl)-1-methoxy-2-propanesulfonamide] was 120 nM.

Take `COc1cccc(OC)c1-n1c(Cc2cc[nH]n2)nnc1NS(=O)(=O)[C@@H](C)[C@H](C)c1ncc(Cl)cn1` [Example 39.0, (2S,3R)-3-(5-chloro-2-pyrimidinyl)-N-(4-(2,6-dimethoxyphenyl)-5-(1H-pyrazol-3-ylmethyl)-4H-1,2,4-triazol-3-yl)-2-butanesulfonamide]: the EC50 worked out at 5.8 nM. With `COc1ncnc(OC)c1-n1c(NS(=O)(=O)[C@@H](C)[C@H](OC)c2ncc(Cl)cn2)nnc1C(C)C` [Example 133.0, (1R,2S)-1-(5-chloro-2-pyrimidinyl)-N-(4-(4,6-dimethoxy-5-pyrimidinyl)-5-(2-propanyl)-4H-1,2,4-triazol-3-yl)-1-methoxy-2-propanesulfonamide], the EC50 was 22 nM. `COc1cccc(OC)c1-n1c(CCc2ccco2)nnc1NS(=O)(=O)[C@@H](C)[C@H](C)c1ncc(Cl)cn1` [Example 36.0, (2S,3R)-3-(5-chloro-2-pyrimidinyl)-N-(4-(2,6-dimethoxyphenyl)-5-(2-(2-furanyl)ethyl)-4H-1,2,4-triazol-3-yl)-2-butanesulfonamide]: the 50% effective concentration (EC50) amounted to 2.9 nM. Consider `CCC(CC)n1c(COC)nnc1NS(=O)(=O)[C@@H](C)[C@H](OC)c1ncc(Cl)cn1` [Example 147.0], for which the EC50 amounted to 170 nM. Still for that read-out and setting: with `COCc1nnc(NS(=O)(=O)[C@@H](C)[C@H](C)c2cnc(OC)cn2)n1-c1c(OC)cccc1OC` [Example 74.0, (2S,3R)-N-(4-(2,6-dimethoxyphenyl)-5-(methoxymethyl)-4H-l,2,4-triazol-3-yl)-3-(5-methoxypyrazin-2-yl)butane-2-sulfonamide] the figure was 16 nM; with `CCCCc1nnc(NS(=O)(=O)[C@@H](C)[C@H](OC)c2ncc(C)cn2)n1-c1c(OC)cccc1OC` [Example 175.0], 1.7 nM.

As for `COc1cccc(OC)c1-n1c(CN2CCCC2=O)nnc1NS(=O)(=O)[C@@H](C)[C@H](C)c1ncc(Cl)cn1` [Example 41.0, (2S,3R)-3-(5-chloro-2-pyrimidinyl)-N-(4-(2,6-dimethoxyphenyl)-5-((2-oxo-1-pyrrolidinyl)methyl)-4H-1,2,4-triazol-3-yl)-2-butanesulfonamide], the concentration for a half-maximal effect (EC50) was 320 nM.

On to `COc1cccc(OC)c1-n1c(Cc2cccnc2)nnc1NS(=O)(=O)[C@@H](C)[C@H](C)c1ncc(C)cn1` [Example 15.0, (2S,3R)-N-(4-(2,6-dimethoxyphenyl)-5-(3-pyridinylmethyl)-4H-1,2,4-triazol-3-yl)-3-(5-methyl-2-pyrimidinyl)-2-butanesulfonamide], for which the half-maximal effective concentration (EC50) was determined as 180 nM. Still for that read-out and setting: the value for `COCCc1nnc(NS(=O)(=O)[C@@H](C)[C@H](OC)c2ncc(Cl)cn2)n1C(COC)COC` [Example 146.0] was 250 nM; that for `COc1ncnc(OC)c1-n1c(CC(C)C)nnc1NS(=O)(=O)[C@@H](C)[C@H](OC)c1ncc(Cl)cn1` [Example 31.0, (1R,2S)-1-(5-chloro-2-pyrimidinyl)-N-(4-(4,6-dimethoxy-5-pyrimidinyl)-5-(2-methylpropyl)-4H-1,2,4-triazol-3-yl)-1-methoxy-2-propanesulfonamide] was 7.6 nM.

The assay is the same for the next values; noted with them: read-out: Activity hAPJ SPA EC50 IP.
As for `COCc1nnc(NS(=O)(=O)[C@@H](C)[C@H](OC)c2ncc(Cl)cn2)n1-c1c(OC)ncnc1OC` [Example 58.0, (1R,2S)-1-(5-chloropyrimidin-2yl)-N-(4-(4.6-dimethoxypyrimidin-5-yl)-5-(methoxymethyl)-4H-l,2,4-triazol-3-yl)-1-methoxypropane-2-sulfonamide], the EC50 stood at 330 nM. Same read-out and setting: the value for `COc1cccc(OC)c1-n1c(COC(C)C)nnc1NS(=O)(=O)[C@@H](C)[C@H](OC)c1ncc(Cl)cn1` [Example 69.0, (1R,2S)-1-(5-chloropyrimidin-2-yl)-N-(4-(2,6-dimethoxyphenyl)-5-(isopropoxymethyl)-4H-1,2,4-triazol-3-yl)-1-methoxypropane-2-sulfonamide] was 1.2 nM. Still for that read-out and setting: with `COCc1nnc(NS(=O)(=O)[C@@H](C)[C@H](OC)c2ncc(C)cn2)n1-c1c(OC)cccc1OC` [Example 60.0, (1R,2S)-N-(4-(2.6-dimethoxyphenyl)-5-(methoxymethyl)-4H-1.2,4-triazol-3-yl)-1-methoxy-1-(5-methylpyrimidin-2-yl)propane-2-sulfonamide] the figure was 22 nM.

Another assay has as its system heart failure rats. Briefly: Cardiac function with ACE inhibitor captopril and APJ agonist in heart failure rats in vivo. More on the design: species or system rat. As to conditions: captopril alone, acute settings. From the text: The interaction between […] (ACE2) and Apelin biology is complicated. To investigate the interaction between the Apelin-APJ and ACE signalling pathways, we examined the improvement in cardiac function with APJ small molecule agonists in the presence of ACE inhibitor captopril in heart failure rats in vivo. […] However, in the presence of an APJ agonist, there was a shift in potency to the left with marked improvement in contractility and ejection fraction without changes in heart rate. These findings provide a new reference for the understanding of the regulation of ACE2 for the renin angiotensin aldosterone system (RAAS), independent of AT1R signaling and offer new potential drug targets for the treatment of diseases such as hypertension and heart failure. This work clearly establishes that combination of an agonist of the APJ receptor with an ARB such as losartan and/or with an ACE inhibitor such as captopril which may play an important role in providing greater efficacy in treating heart failure patients, for example in improving contractility and ejection fraction without changing the heart rate.
In the case of `C[C@H](CS)C(=O)N1CCC[C@H]1C(=O)O` [Captopril, captopril], the “contractility or ejection fraction” value is given as “does not show a marked improvement in contractility or ejection fraction”.
